Results taken from EP3221371B1, “MONOLITHS” (Monolythix, Inc., priority 2014, dated 2016).

System: fluorescently-labeled cell wall material
Assay: EnzChek Lysozyme Assay of covalently grafted lysozyme
Assay type: biochemical
Details: one hour at 37 °C, compared with lysozyme standard dilution series (Figure 5)
Procedure: After covalently grafting lysozyme to a small block of carboxy monolith polymeric matrix, the sample was placed into a solution of fluorescently-labeled cell wall material (EnzChek® Lysozyme Assay Kit) and incubated for one hour at 37 °C in a plate reader, along with a lysozyme standard dilution series.
A fresh solution of 160 mg/mL EDAC stock in dry DMSO was prepared. A lysozyme mix was prepared from 20 µL of a 10 mg/mL solution of lysozyme in 1x PBS, 28 µL of a 200 mM MES solution at pH 7.0, and 15 µL water.
7 µL 160 mg/mL EDAC was spotted onto a single 20 mg disc formed from monolith material, (1:2:1 TEGDMA:EGDMA:HEMA plus 2.0% MAA). The prepared lysozyme mix (63 µL) was then added and the sample incubated at room temperature for 1 h. A glycine solution (10 µl; 30 mg/mL solution in 100 mM MES solution at pH 7.0) was then added and the sample incubated for 15 min at room temperature. The disc was then rinsed in water and stored at 4 °C until use.
To test the activity of the immobilized enzyme, a lysozyme-coupled disc and an untreated control disc were each cut into equal 1/8 size pie-shaped segments. Two pieces of each were then added to two wells of a microwell plate and lysozyme substrate was added. […] Fluorescence was read at regular intervals to determine the extent of carbohydrate breakdown and consequent lysozyme activity.

lysozyme chip: Lysozyme covalently grafted with EDAC to carboxy monolith disc (1:2:1 TEGDMA:EGDMA:HEMA plus 2.0% MAA)
final fluorescence signal intensity: greater than the highest standard
